Results published in paper PMC3114339 (Diabetes Care, 2011).

Tested on: type 2 diabetic subjects
Experiment: Euglycemic glucose clamp for 32 h after s.c. injection of basal insulin
Assay type: in vivo, human

Row | Substance | plasma free fatty acid concentrations higher with detemir compared with glargine (throughout the 32-h clamp study, P < 0.001) | plasma free fatty acid concentrations higher with detemir compared with NPH (throughout the 32-h clamp study, P = 0.003) | interquartile range in time of duration of action (plasma glucose >136 mg/dL) (32-h clamp, statistical significance achieved only versus detemir) | mean GIR AUC0–32 h greater with glargine than NPH (32-h euglycemic clamp, 0.4 units/kg s.c., relative difference versus NPH) [%] | mean GIR AUC0–32 h greater with glargine than detemir (32-h euglycemic clamp, 0.4 units/kg s.c., relative difference versus detemir) [%]
1 | detemir | +26% | +15% | – | – | –
2 | glargine | – | – | smaller interquartile range in time of duration of action than NPH and detemir | 31 | 42
